Results published in PMC10096180, “Half-Sandwich Type Platinum-Group Metal Complexes of C-Glucosaminyl Azines: Synthesis and Antineoplastic and Antimicrobial Activities” (Molecules, 2023).
Read-outs that look alike come from different tables or passages of the source.

Experiments:
Type in all cases: cell-based
[1] = test system: Enterococcus faecalis (ATCC29212); assay: Broth microdilution MIC, reference strain; settings: 24 h, tested range 0.08–40 μM, read-out: MIC E. faecalis ATCC 29,212
In short: (§1)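 EUCAST broth microdilution in Mueller–Hinton broth, inoculum 5.0 × 10^5 CFU/mL, compounds at 0.08–40 μM (twofold dilutions), 24 h at 37 °C. Plates read visually; MIC taken as lowest concentration giving ≥50% inhibition versus drug-free growth control.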

[2] = test system: Staphylococcus aureus (ATCC29213); assay: Broth microdilution MIC, reference strain; settings: 24 h, 0.08–40 μM, read-out: MIC S. aureus ATCC 29213
In short: as §1

[3] = test system: methicillin-resistant Staphylococcus aureus (MRSA) clinical isolates; assay: Broth microdilution MIC, clinical MRSA isolates; settings: 24 h, 0.08–40 μM
In short: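 S. aureus and E. faecium clinical isolates (Debrecen, 2018–2020; MALDI-TOF-identified) tested by EUCAST broth microdilution in Mueller–Hinton broth at 5.0 × 10^5 CFU/mL across 0.08–40 μM (twofold). After 24 h at 37 °C, visually read; MIC is the lowest concentration giving ≥50% inhibition versus growth control. At least two runs in duplicate.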

MIC [1]: 10 µM
MIC [2]: 5 µM
MIC ([3]; clinical isolate 20,426 MRSA, read-out: MIC 20,426 MRSA): 5 µM
MIC ([3]; clinical isolate 24,035 MRSA, read-out: MIC 24,035 MRSA): 5 µM
MIC ([3]; clinical isolate 24,268 MRSA, read-out: MIC 24,268 MRSA): 5 µM
MIC ([3]; clinical isolate 24,272 MRSA, read-out: MIC 24,272 MRSA): 5 µM
MIC ([3]; clinical isolate 24,328 MRSA, read-out: MIC 24,328 MRSA): 5 µM
MIC ([3]; clinical isolate 24,408 MRSA, read-out: MIC 24,408 MRSA): 5 µM
SMILES: Cc1ccc(C(C)C)cc1.F[P-](F)(F)(F)(F)F.N[C@@H]1[C@@H](OCc2ccccc2)[C@H](OCc2ccccc2)[C@@H](COCc2ccccc2)O[C@H]1c1ccccn1.[Cl][Ru+] [Ru-3a]
